Measurements reported in the supplement of paper PMC10307832.

Legend:
Test in all cases: relative viability (nuclei count vs DMSO), 5 days (fraction); higher = more cells survive
HCC-366 = tested on: HCC-366
Summary of the method: (§1)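 Medians of duplicate plates are given as relative viability. That measure is the nuclei count in treated wells divided by the count in vehicle wells. Counts were taken on 4× images of lung cancer cell lines in 1536-well plates, 5 days after pin-tool dosing the day after seeding with one drug alone or a fixed anchor-drug dose plus five library-drug doses (not always all listed) in √10 steps.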

NCI-H1651 = tested on: NCI-H1651
Summary of the method: as §1

NCI-H1650 = tested on: NCI-H1650
Summary of the method: as §1

BEN = tested on: BEN
Summary of the method: as §1

NCI-H1437 = tested on: NCI-H1437
Summary of the method: as §1

NCI-H460 = tested on: NCI-H460
Summary of the method: as §1

LOU-NH91 = tested on: LOU-NH91
Summary of the method: as §1

NCI-H1975 = tested on: NCI-H1975
Summary of the method: as §1

NCI-H1755 = tested on: NCI-H1755
Summary of the method: as §1

CAL-12T = tested on: CAL-12T
Summary of the method: as §1

NCI-H1734 = tested on: NCI-H1734
Summary of the method: as §1

NCI-H2342 = tested on: NCI-H2342
Summary of the method: as §1

NCI-H2023 = tested on: NCI-H2023
Summary of the method: as §1

NCI-H1395 = tested on: NCI-H1395
Summary of the method: as §1

HCC-44 = tested on: HCC-44
Summary of the method: as §1

NCI-H441 = tested on: NCI-H441
Summary of the method: as §1

EKVX = tested on: EKVX
Summary of the method: as §1

NCI-H1355 = tested on: NCI-H1355
Summary of the method: as §1

LU99A = tested on: LU99A
Summary of the method: as §1

NCI-H2085 = tested on: NCI-H2085
Summary of the method: as §1

NCI-H838 = tested on: NCI-H838
Summary of the method: as §1

NCI-H358 = tested on: NCI-H358
Summary of the method: as §1

Q: What does the source list for CC1(C)CCC(c2ccc(Cl)cc2)=C(CN2CCN(c3ccc(C(=O)NS(=O)(=O)c4ccc(N[C@H](CCN5CCOCC5)CSc5ccccc5)c(S(=O)(=O)C(F)(F)F)c4)cc3)CC2)C1 [Navitoclax] + O=C(CCCCCCC(=O)Nc1ccccc1)NO [Vorinostat] (partner 1 µM)?
A: relative viability (HCC-366; first compound 0.005 µM): 0.302; relative viability (HCC-366; first compound 0.01581 µM): 0.356; relative viability (HCC-366; first compound 0.1581 µM): 0.379; relative viability (HCC-366; first compound 0.5 µM): 0.306; relative viability (NCI-H1651; first compound 0.005 µM): 0.582; relative viability (NCI-H1651; first compound 0.01581 µM): 0.575; relative viability (NCI-H1651; first compound 0.05 µM): 0.466; relative viability (NCI-H1651; first compound 0.1581 µM): 0.573; relative viability (NCI-H1651; first compound 0.5 µM): 0.598; relative viability (NCI-H1650; first compound 0.005 µM): 0.5; relative viability (NCI-H1650; first compound 0.01581 µM): 0.66; relative viability (NCI-H1650; first compound 0.05 µM): 0.671; relative viability (NCI-H1650; first compound 0.1581 µM): 0.63; relative viability (NCI-H1650; first compound 0.5 µM): 0.651; relative viability (BEN; first compound 0.005 µM): 0.617; relative viability (BEN; first compound 0.01581 µM): 0.658; relative viability (BEN; first compound 0.05 µM): 0.593; relative viability (BEN; first compound 0.1581 µM): 0.572; relative viability (BEN; first compound 0.5 µM): 0.417; relative viability (NCI-H1437; first compound 0.005 µM): 0.834; relative viability (NCI-H1437; first compound 0.01581 µM): 0.888; relative viability (NCI-H1437; first compound 0.05 µM): 0.847; relative viability (NCI-H1437; first compound 0.1581 µM): 0.88; relative viability (NCI-H1437; first compound 0.5 µM): 0.808; relative viability (NCI-H460; first compound 0.005 µM): 0.614; relative viability (NCI-H460; first compound 0.01581 µM): 0.7; relative viability (NCI-H460; first compound 0.05 µM): 0.561; relative viability (NCI-H460; first compound 0.1581 µM): 0.645; relative viability (NCI-H460; first compound 0.5 µM): 0.737; relative viability (LOU-NH91; first compound 0.005 µM): 0.956; relative viability (LOU-NH91; first compound 0.01581 µM): 0.925; relative viability (LOU-NH91; first compound 0.05 µM): 0.791; relative viability (LOU-NH91; first compound 0.1581 µM): 0.639; relative viability (LOU-NH91; first compound 0.5 µM): 0.437; relative viability (NCI-H1975; first compound 0.005 µM): 0.718; relative viability (NCI-H1975; first compound 0.01581 µM): 0.765; relative viability (NCI-H1975; first compound 0.05 µM): 0.752; relative viability (NCI-H1975; first compound 0.1581 µM): 0.718; relative viability (NCI-H1975; first compound 0.5 µM): 0.592; relative viability (NCI-H1755; first compound 0.005 µM): 0.778; relative viability (NCI-H1755; first compound 0.01581 µM): 0.798; relative viability (NCI-H1755; first compound 0.05 µM): 0.543; relative viability (NCI-H1755; first compound 0.1581 µM): 0.728; relative viability (NCI-H1755; first compound 0.5 µM): 0.691; relative viability (CAL-12T; first compound 0.005 µM): 0.73; relative viability (CAL-12T; first compound 0.01581 µM): 0.825; relative viability (CAL-12T; first compound 0.05 µM): 0.901; relative viability (CAL-12T; first compound 0.1581 µM): 0.806; relative viability (CAL-12T; first compound 0.5 µM): 0.903; relative viability (NCI-H1734; first compound 0.005 µM): 0.829; relative viability (NCI-H1734; first compound 0.01581 µM): 0.938; relative viability (NCI-H1734; first compound 0.1581 µM): 0.755; relative viability (NCI-H1734; first compound 0.5 µM): 0.703; relative viability (NCI-H2342; first compound 0.005 µM): 0.752; relative viability (NCI-H2342; first compound 0.01581 µM): 0.732; relative viability (NCI-H2342; first compound 0.05 µM): 0.814; relative viability (NCI-H2342; first compound 0.1581 µM): 0.804; relative viability (NCI-H2342; first compound 0.5 µM): 0.779; relative viability (NCI-H2023; first compound 0.005 µM): 0.744; relative viability (NCI-H2023; first compound 0.01581 µM): 0.76; relative viability (NCI-H2023; first compound 0.05 µM): 0.659; relative viability (NCI-H2023; first compound 0.1581 µM): 0.557; relative viability (NCI-H2023; first compound 0.5 µM): 0.473; relative viability (NCI-H1395; first compound 0.005 µM): 0.653; relative viability (NCI-H1395; first compound 0.01581 µM): 0.862; relative viability (NCI-H1395; first compound 0.05 µM): 0.802; relative viability (NCI-H1395; first compound 0.1581 µM): 0.682; relative viability (NCI-H1395; first compound 0.5 µM): 0.659; relative viability (HCC-44; first compound 0.005 µM): 1.13; relative viability (HCC-44; first compound 0.01581 µM): 1.07; relative viability (HCC-44; first compound 0.05 µM): 0.988; relative viability (HCC-44; first compound 0.1581 µM): 1.12; relative viability (HCC-44; first compound 0.5 µM): 1.09; relative viability (NCI-H441; first compound 0.005 µM): 0.651; relative viability (NCI-H441; first compound 0.01581 µM): 0.961; relative viability (NCI-H441; first compound 0.05 µM): 0.982; relative viability (NCI-H441; first compound 0.1581 µM): 0.694; relative viability (NCI-H441; first compound 0.5 µM): 0.725; relative viability (EKVX; first compound 0.005 µM): 0.735; relative viability (EKVX; first compound 0.01581 µM): 0.911; relative viability (EKVX; first compound 0.05 µM): 0.668; relative viability (EKVX; first compound 0.1581 µM): 0.711; relative viability (EKVX; first compound 0.5 µM): 0.79; relative viability (NCI-H1355; first compound 0.005 µM): 0.63; relative viability (NCI-H1355; first compound 0.01581 µM): 0.685; relative viability (NCI-H1355; first compound 0.05 µM): 0.618; relative viability (NCI-H1355; first compound 0.1581 µM): 0.637; relative viability (NCI-H1355; first compound 0.5 µM): 0.665; relative viability (LU99A; first compound 0.005 µM): 0.487; relative viability (LU99A; first compound 0.01581 µM): 0.451; relative viability (LU99A; first compound 0.1581 µM): 0.539; relative viability (LU99A; first compound 0.5 µM): 0.469; relative viability (NCI-H2085; first compound 0.005 µM): 0.817; relative viability (NCI-H2085; first compound 0.01581 µM): 0.998; relative viability (NCI-H2085; first compound 0.05 µM): 0.568; relative viability (NCI-H2085; first compound 0.1581 µM): 0.844; relative viability (NCI-H2085; first compound 0.5 µM): 0.834; relative viability (NCI-H838; first compound 0.005 µM): 0.678; relative viability (NCI-H838; first compound 0.01581 µM): 0.73; relative viability (NCI-H838; first compound 0.05 µM): 0.76; relative viability (NCI-H838; first compound 0.1581 µM): 0.73; relative viability (NCI-H838; first compound 0.5 µM): 0.667; relative viability (NCI-H358; first compound 0.005 µM): 0.705; relative viability (NCI-H358; first compound 0.01581 µM): 0.816; relative viability (NCI-H358; first compound 0.05 µM): 0.689; relative viability (NCI-H358; first compound 0.1581 µM): 0.652; relative viability (NCI-H358; first compound 0.5 µM): 0.848
